Assay results reported in the supplement of paper PMC10307832.

compound: CCN1CCN(c2ccc(Nc3cc(N(C)C(=O)Nc4c(Cl)c(OC)cc(OC)c4Cl)ncn3)cc2)CC1 [BGJ398] + CC(=O)c1c(C)c2cnc(Nc3ccc(N4CCNCC4)cn3)nc2n(C2CCCC2)c1=O [Palbociclib] (partner 0.5 µM); assay: relative viability (nuclei count vs DMSO), 5 days (fraction); higher = more cells survive; conditions: first compound 0.01 µM
Outline: (§1)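 Dosing by pin tool came one day after lung cancer cell lines were seeded in 1536-well plates, using either one drug or a fixed anchor-drug dose plus five library-drug doses (not always all listed) in √10 steps. After 5 days, nuclei were counted on 4× images. Relative viability is treated-well nuclei count divided by vehicle-well nuclei count, and values are medians of duplicate plates.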

Cell Line	relative viability
NCI-H522	1.13
NCI-H727	0.806
NCI-H1650	0.298
NCI-H1993	0.674
SW 1573	0.399
NCI-H838	0.203
LCLC-103H	0.42
NCI-H520	0.216
NCI-H2126	0.374
EMC-BAC-2	0.497
NCI-H2085	0.494
HCC-366	0.435
NCI-H1666	0.659
LK-2	0.638
NCI-H2087	0.266
NCI-H2342	0.523
SK-MES-1	0.324
H3255	0.281
COR-L23	0.299
COR-L 105	0.47
LOU-NH91	0.555

Cell Line	relative viability
ChaGo-K-1	0.914
NCI-H2170	0.426
NCI-H2405	0.523
HOP-62	0.464
HCC-44	0.919
SW 900	0.52
LU99A	0.426
BEN	0.522
HARA	0.242
NCI-H1648	0.266
HCC-78	0.44
NCI-H322M	0.493
LCLC-97TM1	0.177
NCI-H2009	0.268
A-427	0.524
NCI-H661	0.422
NCI-H1734	0.329
NCI-H460	0.209
NCI-H2347	0.427
SK-LU-1	0.394
NCI-H1395	0.603

Cell Line	relative viability
201T	0.387
NCI-H1915	0.525
HCC-827	0.26
LXF-289	0.584
NCI-H23	0.471
NCI-H647	0.388
CAL-12T	0.44
NCI-H1651	0.507
EPLC-272H	0.32
NCI-H2228	0.645
NCI-H1792	0.637
NCI-H1355	0.417
NCI-H3122	0.174
NCI-H1437	0.383
NCI-H1755	0.464
NCI-H2023	0.341
HCC-15	0.713
NCI-H1793	0.321
PC-14	0.505

same assay, conditions: first compound 0.03162 µM

Cell Line	relative viability
NCI-H522	1.07
NCI-H727	0.651
NCI-H1650	0.375
NCI-H1993	0.639
SW 1573	0.419
NCI-H838	0.203
LCLC-103H	0.497
NCI-H520	0.19
NCI-H2126	0.344
EMC-BAC-2	0.558
NCI-H2085	0.476
HCC-366	0.415
NCI-H1666	0.631
LK-2	0.862
NCI-H2087	0.224
NCI-H2342	0.529
SK-MES-1	0.328
H3255	0.321
COR-L23	0.332
COR-L 105	0.357

Cell Line	relative viability
LOU-NH91	0.544
ChaGo-K-1	0.959
NCI-H2170	0.389
NCI-H2405	0.586
HOP-62	0.509
HCC-44	0.962
SW 900	0.528
LU99A	0.442
BEN	0.457
HARA	0.257
HCC-78	0.472
NCI-H322M	0.43
LCLC-97TM1	0.221
NCI-H2009	0.222
A-427	0.488
NCI-H441	0.186
NCI-H661	0.406
NCI-H1734	0.352
NCI-H460	0.169
NCI-H2347	0.467

Cell Line	relative viability
SK-LU-1	0.47
NCI-H1395	0.587
201T	0.358
NCI-H1915	0.533
LXF-289	0.549
NCI-H23	0.601
NCI-H647	0.375
CAL-12T	0.504
NCI-H1651	0.561
EPLC-272H	0.314
NCI-H2228	0.885
NCI-H1792	0.733
NCI-H1355	0.402
NCI-H3122	0.166
NCI-H1437	0.309
NCI-H1755	0.473
NCI-H2023	0.493
HCC-15	0.743
NCI-H1793	0.271
PC-14	0.524

same assay, conditions: first compound 0.1 µM

Cell Line	relative viability
NCI-H522	1.06
NCI-H727	0.647
NCI-H1650	0.28
NCI-H1993	0.655
SW 1573	0.402
NCI-H838	0.217
LCLC-103H	0.457
NCI-H520	0.147
NCI-H2126	0.36
EMC-BAC-2	0.547
NCI-H2085	0.472
HCC-366	0.422
NCI-H1666	0.666
LK-2	0.489
NCI-H2087	0.204
NCI-H2342	0.513
SK-MES-1	0.303
H3255	0.314
COR-L23	0.269
COR-L 105	0.445
LOU-NH91	0.553

Cell Line	relative viability
ChaGo-K-1	0.944
NCI-H2170	0.416
NCI-H2405	0.52
HOP-62	0.537
HCC-44	1.03
SW 900	0.534
LU99A	0.438
BEN	0.43
HARA	0.228
NCI-H1648	0.256
HCC-78	0.492
NCI-H322M	0.472
LCLC-97TM1	0.262
NCI-H2009	0.197
A-427	0.49
NCI-H441	0.213
NCI-H661	0.384
NCI-H1734	0.355
NCI-H460	0.118
NCI-H2347	0.477
SK-LU-1	0.384

Cell Line	relative viability
NCI-H1395	0.464
201T	0.356
NCI-H1915	0.532
HCC-827	0.469
LXF-289	0.564
NCI-H23	0.591
NCI-H647	0.517
CAL-12T	0.516
NCI-H1651	0.554
EPLC-272H	0.324
NCI-H2228	0.922
NCI-H1792	0.61
NCI-H1355	0.376
NCI-H3122	0.175
NCI-H1437	0.323
NCI-H1755	0.461
NCI-H2023	0.285
HCC-15	0.79
NCI-H1793	0.286
PC-14	0.664

same assay, conditions: first compound 0.3162 µM

Cell Line	relative viability
NCI-H522	0.932
NCI-H727	0.686
NCI-H1650	0.182
NCI-H1993	0.692
SW 1573	0.423
NCI-H838	0.22
LCLC-103H	0.478
NCI-H520	0.142
NCI-H2126	0.351
EMC-BAC-2	0.568
NCI-H2085	0.447
HCC-366	0.388
NCI-H1666	0.641
LK-2	0.336
NCI-H2087	0.282
NCI-H2342	0.666
SK-MES-1	0.331
H3255	0.315
COR-L23	0.288
COR-L 105	0.378
LOU-NH91	0.559

Cell Line	relative viability
ChaGo-K-1	0.962
NCI-H2170	0.427
NCI-H2405	0.553
HOP-62	0.473
HCC-44	1.02
SW 900	0.453
LU99A	0.392
BEN	0.481
HARA	0.289
NCI-H1648	0.273
HCC-78	0.455
NCI-H322M	0.491
LCLC-97TM1	0.197
NCI-H2009	0.268
A-427	0.435
NCI-H441	0.25
NCI-H661	0.4
NCI-H1734	0.359
NCI-H460	0.206
NCI-H2347	0.47
SK-LU-1	0.339

Cell Line	relative viability
NCI-H1395	0.458
201T	0.349
NCI-H1915	0.529
HCC-827	0.45
LXF-289	0.531
NCI-H23	0.471
NCI-H647	0.395
CAL-12T	0.49
NCI-H1651	0.54
EPLC-272H	0.359
NCI-H2228	0.638
NCI-H1792	0.655
NCI-H1355	0.389
NCI-H3122	0.176
NCI-H1437	0.337
NCI-H1755	0.468
NCI-H2023	0.456
HCC-15	0.769
NCI-H1793	0.237

same assay, conditions: first compound 1 µM

Cell Line	relative viability
NCI-H522	0.859
NCI-H727	0.691
NCI-H1650	0.249
NCI-H1993	0.724
SW 1573	0.404
NCI-H838	0.195
LCLC-103H	0.518
NCI-H520	0.161
NCI-H2126	0.335
EMC-BAC-2	0.516
NCI-H2085	0.521
HCC-366	0.476
NCI-H1666	0.638
LK-2	0.191
NCI-H2087	0.184
NCI-H2342	0.611
SK-MES-1	0.308
H3255	0.314
COR-L23	0.273
COR-L 105	0.383
LOU-NH91	0.536

Cell Line	relative viability
ChaGo-K-1	0.923
NCI-H2170	0.39
NCI-H2405	0.547
HOP-62	0.492
HCC-44	0.856
SW 900	0.528
LU99A	0.364
BEN	0.401
HARA	0.188
NCI-H1648	0.227
HCC-78	0.459
NCI-H322M	0.521
LCLC-97TM1	0.267
NCI-H2009	0.241
A-427	0.393
NCI-H441	0.183
NCI-H661	0.398
NCI-H1734	0.355
NCI-H460	0.0801
NCI-H2347	0.422
SK-LU-1	0.346

Cell Line	relative viability
NCI-H1395	0.481
201T	0.268
NCI-H1915	0.556
HCC-827	0.518
LXF-289	0.552
NCI-H23	0.475
NCI-H647	0.413
CAL-12T	0.352
NCI-H1651	0.498
EPLC-272H	0.358
NCI-H2228	0.738
NCI-H1792	0.532
NCI-H1355	0.386
NCI-H3122	0.227
NCI-H1437	0.278
NCI-H1755	0.441
NCI-H2023	0.404
HCC-15	0.753
NCI-H1793	0.309
PC-14	0.513

compound: CCN1CCN(c2ccc(Nc3cc(N(C)C(=O)Nc4c(Cl)c(OC)cc(OC)c4Cl)ncn3)cc2)CC1 [BGJ398] + O=C(c1cc(Cc2n[nH]c(=O)c3ccccc23)ccc1F)N1CCN(C(=O)C2CC2)CC1 [Olaparib] (partner 8 µM); assay: as above; conditions: first compound 0.01 µM
Outline: as §1

Cell Line	relative viability
NCI-H522	0.714
NCI-H727	0.707
NCI-H1650	0.81
EBC-1	0.717
NCI-H1703	0.342
NCI-H1993	1.02
SW 1573	0.413
NCI-H838	0.731
LCLC-103H	0.756
NCI-H520	0.265
NCI-H2126	0.953
EMC-BAC-2	0.456
NCI-H2085	0.759
Calu-6	0.599
HCC-366	0.368
NCI-H1666	0.759
NCI-H596	0.674
LK-2	0.624
